# Results taken from patent EP1344776A1, “5- 2-hydroxy-3-[1-(3-trifluoromethylphenyl)-cyclopropyl]-propionylamino -phtalide and 6- 2-hydroxy-3-[1-(3-trifluoromethylphenyl)-cyclopropyl]-propionylamino -4-methyl-2,3-benzoxazin-1-one derivatives with progesterone receptor modulating activity for use in fertility control, hormone replacement …” (Schering Aktiengesellschaft, priority 2002, dated 2003).
# What was measured:
# hPR-A = assay: PR-A transcription assay (MTV-LUC reporter, SK-N-MC cells); type: cell-based, human; conditions: 10^-7 mol/l test compound relative to R5020 10^-7 mol/l, 24 hours, 0.1 µM
# Procedure: (§1) The method for screening for PR isoform-specific progestins according to the present invention is carried out with first and second SK-N-MC cells stably transfected with a plasmid expressing the hPR-A (first cells) or the hPR-B (second cells) and the LUC reporter gene linked to the hormonally responsive MTV promoter.
# (§2) For the transcription assay, the cells are seeded onto 96-well dishes (2x 10^4 cells/dish) and cultured in a medium as described above, with the exception that the FCS is replaced by a 3 % charcoal stripped FCS. 48 hours later, cells are contacted with prediluted test compounds. For determination of agonistic activity, cells are cultured in the presence of increasing concentrations (10^-6 to 10^-11 mol/l) of test progestins. As a positive control for reporter gene induction cells are treated with 10^-6 to 10^-11 mol/l R5020 (promegestone). As a negative control for reporter gene induction, cells are cultured in 1 % ethanol.
# (§3) Evaluation of the response gives the efficacy [%], and evaluation of the EC50 values gives the potency [nM]. Calculation of the agonistic activity is conducted as follows:
# (§4) The LUC activity [%] for the measured data points is calculated as follows: relative LUC activity [%] = 100 x((response 10)^-6 (to 10)^-11 mol/l test compound - CO)/(CI - CO) [formula] wherein CI = 100 % stimulation (R5020, 10^-7 mol/l) and CO = 0 % stimulation (ethanol, 1 %).
# (§5) Thus, the efficacy [%] is calculated according to: efficacy [%] = 100 x((response 10)^-7 mol/l test compound - CO)/(CI - CO) [formula]
# (§6) The potency [nM], i.e. the EC50, is determined graphically.
# hPR-B = assay: PR-B transcription assay (MTV-LUC reporter, SK-N-MC cells); type: cell-based, human; conditions: 10^-7 mol/l test compound relative to R5020 10^-7 mol/l, 24 hours, 0.1 µM
# Procedure: as §1
# The cells are cultured in Minimum Essential Medium with Earl's Salts (S-MEM, without L-glutamine; Gibco BRL, no. 21090-022), supplemented with 10 % fetal calf serum (FCS), penicillin 100U/streptomycin 100 µg/ml (Biochrom, no. A2213), L-glutamine 4 mmol/l (Gibco BRL, no. 25030-024), sodium pyruvate 1 mmol/l (Biochrom, no. L0473) and 1x non-essential amino acids (Biochrom, no. K0293) at a temperature of 37 °C and in an atmosphere of 5 % carbon dioxide.
# as §2
# After incubation with test progestins for 24 hours, the medium is removed and cells are lysed with 20 µl of lysis buffer (Luciferase Assay System E 153A; Promega) and under agitation of the plate for 10 min. After addition of 30 µl of luciferase reagent (Luciferase Assay System E 151A + 152A; Promega) within 30 seconds per plate, the activity of the luciferase reporter gene product is determined in the cell lysates by means of a Microlite ML 3000 microtiter plate luminometer (Dynatech) in cycle mode.
# as §3, §4, §5, §6
# rat mammary epithelium = assay: Bioassay on proliferating/differentiating effects in the rat mammary epithelium (whole mount staining); type: in vivo; conditions: terminal end buds
# Procedure: The object of this test is to evaluate the effect of progestins on the development of the mammary gland, in particular on the formation of terminal end buds in the mammary gland in estrogen primed rats.
# Premature female rats (Wistar Han, SPF) are ovariectomized at the age of 21 days, 4 to 6 days before treatment start. The animals are treated for 6 days with standard estrogen (estrone, 70 µg/kg) and the test progestin (application volume: 0.1 ml/50g body weight; vehicle: benzylbenzoate/castor oil (1+4 v/v); subcutaneous). Control groups are e.g.: vehicle, estrone without progestin, estradiol together with a known progestin, e.g. R5020 (promegestone). After the 6-day treatment the animals are killed with carbon dioxide.
# For the whole mount staining, animals are shaved in the left abdominal inguinal mammary region, which is cut from the body together with the skin. For the histological/immunohistochemical analyses the right abdominal inguinal mammary gland is cut from the body together with the connective tissue adhered thereto and fixed in 3.7 % formalin in PBS (phosphate buffer saline; without Ca^2+/Mg^2+).
# The preparations are fixed over night in alcohol-formalin according to the method of Tellyesniczky (see below). Then the mammary gland tissue and subcutis adhered thereto are stripped from the cutis and the preparations are again fixed over night. The further steps are as follows: ethanol 70 %: 1.5 hours; acetone: 3 × 1.5 hours; acetone: over night; isopropanol: 1.5 hours; ethanol 96 %: 2 hours; hematoxylin-iron: 3 hours; VE water: first rinse the preparations and then 2 × 0.5 hours; ethanol 70 %: over night; ethanol 80 %: 1.5 hours; ethanol 96 %: 1.5 hours; isopropanol: 1.5 hours. The preparations are then moved to petri dishes and left in toluene for approximately 1 hour, i.e. until they have stopped to swim up. Then the preparations are treated with cedarwood oil (Merck, no. 1.06965). The incubation times above are minimum times and can be extended. In particular, incubation in ethanol 70 % after fixation can be extended to at least 2.5 weeks.
# Preparation of the solutions necessary for the whole mount staining: • a) Alcohol-formalin according to Tellyesniczky: formaldehyde 37%: 81.8 ml, ethanol 70 %: 1636 ml, glacial acetic acid (to be added shortly before use): 81.8 ml (total: 1800 ml). • b) Hematoxylin mother solution: Hematoxylin (Merck, no. 1.15938): 10 g, ethanol 96 %: 100 ml. The solution must stand for 48 hours at 37 °C before use. It can be kept in a dark place for almost unlimited time. • c) Hematoxylin-iron solution for use: hematoxylin mother solution (filtered): 15.2 ml, ethanol 96 %: 1374 ml, FeCl3 x 6 H2O (s. 4): 91.1 ml, 1 mol/l HCl: 220 ml (total: 1700 ml); adjustment to a pH of 1.25 with 2mol/l NaOH. • d) FeCl3 x 6 H2O solution: FeCl3 x 6 H2O (Merck, no. 1.03943): 1.07 g, VE water: 90.2 ml, HCl: 37 %: 0.92 ml (total: 91.1 ml).
# By means of a 40-fold magnification, the terminal end buds near the nipple in direction of the tail are counted. The area to be investigated should be about 1.8 mm^2. For well-differentiated preparations this area may be reduced, with at least 250 buds to be counted. After counting, the number of end buds per 1 mm^2 is calculated. […]
# [1] = tested on: Pregnant rats (Wistar Han, SPF); assay: Pregnancy maintenance test in rat; type: in vivo; conditions: ovariectomized pregnant rats, with estrone
# Source text: In rats, castration induces termination of pregnancy. Progestins (combined with estrogens) are capable of maintaining pregnancy in castrated animals. However, the degree of pregnancy maintenance in castrated rats is optimal only in a defined dose range. Therefore, higher as well as lower doses generally induce a weaker effect. Accompanying treatment with defined doses of estrone (E1) increases the pregnancy maintaining effect of progestins.
# Pregnant rats (Wistar Han, SPF) of 190 to 220 g (5 to 8 animals per dose) are ovariectomized on day 8 of pregnancy, 2 hours after the first substance administration. From day 8 to day 14, rats are daily treated with test progestin in combination with a standard dose of E1. One day later, animals are killed with carbon dioxide. For each animal, the number of living and dead fetuses is determined according to the heartbeat of the embryos. In case of empty uteri, the number of implantation sites is determined by means of staining with a 10 % ammonium sulfide solution.
# S.c. (subcutaneous) application: The test progestin is dissolved in benzyl benzoate/castor oil (1+4 v/v), and the daily dose is administered in a volume of 1 ml/kg body weight.
# P.o. (peroral) application: The test progestin is suspended in a carrier liquid (85 mg Myrj^R in 100 ml 0.9 % w/v NaCl solution), and the daily dose is administered in a volume of 2 ml/kg body weight.
# I.p. (intraperitoneal) application: The test progestin is dissolved in propylene glycol and charged in miniature osmotic pumps (type 2001, 1.0 µl/h, 7 days), which are placed in the abdominal cavity of the rat.
# The standard dose of estrone is 0.005 mg/kg body weight s.c. and is dissolved in benzyl benzoate/castor oil ([…]).
# It is determined the pregnancy maintenance per animal [%], the pregnancy maintenance per dose (median of single values) and the ED50 (dose, at which pregnancy is maintained in 50 % of the animals; 100 % corresponds to control animals that are not ovariectomized).
# female rats = assay: Ovulation inhibition test in rat; type: in vivo; conditions: rat (Table 1-b); read-out: Ovulation Inhibition (rat) [ED50]
# Procedure: Before the treatment is started, two […] cycles of female rats (weight: 190 to 210 g) were monitored. Only animals having a regular 4 day-cycle are used for the subsequent test. Starting in the metoestrus, the test compound is administered for 4 days (day 1 to 4) and the cycle is controlled thereafter.
# For subcutaneous application, the test compounds are dissolved in benzyl benzoate/castor oil (1+9 v/v) and the daily dose is administered in a volume of 1 ml/kg body weight.
# For peroral application, the test compounds are suspended in a carrier liquid (85 mg Myrj^R in 100 ml 0.9 % w/v NaCl solution) and the daily dose is administered in a volume of 2 ml/kg body weight.
# On day 4, after the application of the test compound, those animals having estrus or metoestrus are ovariectomized under ether anesthesia on one side. Preparations of the tubes are prepared and they are investigated for ova by means of microscope. On day 5 all animals (intact and partly ovariectomized) are killed with carbon dioxide, the tubes are preserved and analyzed in the same way. It is then determined, as a percentage, in how many animals ovulation was inhibited.
Compound,PR-A agonism efficacy (hPR-A),PR-B agonism efficacy (hPR-B),"Mammary gland, whole mount staining (rat) [equi-efficient dose] (rat mammary epithelium; dose pair with 0.1 mg/kg R5020, independent test)","Mammary gland, whole mount staining (rat) [equi-efficient dose] (rat mammary epithelium; dose pair with 0.3 mg/kg R5020, independent tests)",Maintenance of pregnancy (rat) [ED50] [1],ED50 (female rats)
"Cc1noc(=O)c2ccc(NC(=O)C(C)(O)CC3(c4cccc(C(F)(F)F)c4)CC3)cc12 (single isomer, unassigned; (+)) [((+)-3), (+)-6-{2-hydroxy-3-[1-(3-trifluoromethylphenyl)-cyclopropyl]-2-methyl-propionylamino}-4-methyl-2,3-benzoxazin-1-one]",94%,71%,–,–,–,–
"CCC(=O)[C@@]1(C)CC[C@H]2[C@@H]3CCC4=CC(=O)CCC4=C3CC[C@@]21C [R5020, promegestone, reference compound]",–,–,0.1 mg/kg,0.3 mg/kg,0.1 mg/kg,0.06 mg/kg
"O=C1OCc2cc(NC(=O)C(O)(CC3(c4cccc(C(F)(F)F)c4F)CC3)C(F)(F)F)ccc21 (single isomer, unassigned; (+)) [((+)-4), (+)-5-{2-hydroxy-3-[1-(2-fluoro-3-trifluoromethylphenyl)-cyclopropyl]-2-trifluoromethyl-propionylamino}-phthalide]",100%,82%,–,–,–,–
"Cc1noc(=O)c2ccc(NC(=O)C(O)(CC3(c4cccc(C(F)(F)F)c4F)CC3)C(F)(F)F)cc12 (single isomer, unassigned; (+)) [((+)-2), (+)-6-{2-hydroxy-3-[1-(2-fluoro-3-trifluoromethylphenyl)-cyclopropyl]-2-trifluoromethyl-propionylamino}-4-methyl-2,3-benzoxazin-1-one]",99.2%,67.5%,–,–,–,–
